Measured values taken from patent publication US10493060B2, “Spirocyclic compounds” (ZENO ROYALTIES & MILESTONES, LLC, priority 2015, dated 2019).

Legend:
[1] = tested on: A375 (melanoma) cells; assay: Proliferation assay (CellTiter-Glo), A375; type: cell-based; conditions: Homo sapiens, A-375, 72 h, 3 days
Procedure: A375 (melanoma), Colo-205 (colon cancer), Miapaca (pancreatic), HPAFII (pancreatic), sNF02.0 (neurofibromatosis type 1), sNF96.2 (neurofibromatosis type 1) and 8505 (Thyroid) cells were grown and maintained in RPMI-1640 medium containing 100 U/mL penicillin-streptomycin and 10% fetal bovine serum. Cells were in growth medium in 96-well opaque-walled clear bottom plates and incubated the in the CO2 incubator overnight before treatment. Cells were treated with compounds diluted in DMSO and a 10 point 3-fold serial dilutions were done. Plates were placed in 37° C., 5% CO2 for to incubate for 3 days. Before they were developed by adding 100 μL of CellTiter-Glo reagent (Promega) to the assay plate, plates were shaken briefly for 2 mins and allowed to incubate at rt for 10 mins. The bottom of the plates was pasted with white back seal and luminescence was recorded with Flexstation3 with setting of luminescence, integration time 500 ms.

[2] = target: Activated ERK2 (Homo sapiens (Human), UniProt P28482); assay: Active ERK2 kinase assay (Mobility Shift Assay); type: biochemical
Chain of Activated ERK2 (P28482 whole entry): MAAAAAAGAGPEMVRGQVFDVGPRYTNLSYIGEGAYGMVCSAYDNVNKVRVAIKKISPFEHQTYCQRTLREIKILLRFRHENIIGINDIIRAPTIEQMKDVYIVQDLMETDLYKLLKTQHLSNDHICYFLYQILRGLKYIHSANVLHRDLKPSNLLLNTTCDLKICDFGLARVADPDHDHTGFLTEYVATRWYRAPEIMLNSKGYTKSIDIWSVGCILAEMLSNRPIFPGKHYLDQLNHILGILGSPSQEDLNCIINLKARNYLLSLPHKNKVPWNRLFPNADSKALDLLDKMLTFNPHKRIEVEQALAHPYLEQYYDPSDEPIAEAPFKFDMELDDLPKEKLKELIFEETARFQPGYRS
Procedure: (§1) Activated ERK1 and ERK2 activity was determined in a Mobility Shift Assay (MSA) format as follows: Compound and kinase solution were prepared with assay buffer (20 mM HEPES, 0.01% Triton X-100, 2 mM DTT, pH7.5) and mixed and incubated in for 30 mins at rt. ERK1 & ERK2 were then activated by the addition of Fl-Substrate, ATP and metal solution and incubated for 1 h at rt. After 1 h, the reaction was terminated by the addition of […] of Termination Buffer (QuickScout Screening Assist MSA; Carna Biosciences) to the well. The reaction mixture was applied to LabChip™ system (PerkinElmer), and the product and substrate peptide peaks were separated, analyzed and quantitated. The kinase reaction is evaluated by the product ratio calculated from peak heights of product (P) and substrate (S) peptides (P/(P+S)).

[3] = target: Activated ERK1 (Homo sapiens (Human), UniProt P27361); assay: Active ERK1 kinase assay (Mobility Shift Assay); type: biochemical
Chain of Activated ERK1 (P27361 whole entry): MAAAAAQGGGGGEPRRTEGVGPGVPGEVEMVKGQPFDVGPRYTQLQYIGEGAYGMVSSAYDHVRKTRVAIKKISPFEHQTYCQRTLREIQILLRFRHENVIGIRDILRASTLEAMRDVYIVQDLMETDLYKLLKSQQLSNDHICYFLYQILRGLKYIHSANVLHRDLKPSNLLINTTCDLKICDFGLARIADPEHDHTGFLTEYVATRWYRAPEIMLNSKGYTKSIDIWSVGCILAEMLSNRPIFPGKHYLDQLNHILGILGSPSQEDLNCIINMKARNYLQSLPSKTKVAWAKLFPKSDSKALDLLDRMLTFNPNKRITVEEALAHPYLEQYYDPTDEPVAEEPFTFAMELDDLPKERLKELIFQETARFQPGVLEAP
Procedure: as §1

Row | SMILES | IC50 [1] [nM] | IC50 [2] [nM] | IC50 [3] [nM]
1 | Cc1noc(-c2ccc(C3=CCN(C(=O)CN4CC[C@]5(CCN(c6ccc7[nH]nc(-c8ccnc(C(F)(F)F)c8)c7c6)C5=O)C4)CC3)cc2)n1 [Example 43, (S)-7-(2-(4-(4-(3-methyl-1,2,4-oxadiazol-5-yl)phenyl)-3,6-dihydropyridin-1(2H)-yl)-2-oxoethyl)-2-(3-(2-(trifluoromethyl)pyridin-4-yl)-1H-indazol-5-yl)-2,7-diazaspiro[4.4]nonan-1-one] | ≥ 1000 | ≤ 50 | –
2 | Cn1cnc(-c2ccc(C3=CCN(C(=O)CN4CC[C@]5(CCN(c6ccc7[nH]ncc7c6)C5=O)C4)CC3)cc2)n1 [Example 36, (S)-2-(1H-indazol-5-yl)-7-(2-(4-(4-(1-methyl-1H-1,2,4-triazol-3-yl)phenyl)-3,6-dihydropyridin-1(2H)-yl)-2-oxoethyl)-2,7-diazaspiro[4.4]nonan-1-one] | ≥ 1000 | 50 to 250 | –
3 | CC(C)Oc1ccc(-c2n[nH]c3ccc(N4CC[C@]5(CCN(CC(=O)N6CCC(C78CC(c9ncn(C)n9)(C7)C8)CC6)C5)C4=O)cc23)cn1 [Example 24, (S)-2-(3-(6-Isopropoxypyridin-3-yl)-1H-indazol-5-yl)-7-(2-(4-(3-(1-methyl-1H-1,2,4-triazol-3-yl)bicyclo[1.1.1]pentan-1-yl)piperidin-1-yl)-2-oxoethyl)-2,7-diazaspiro[4.4]nonan-1-one] | ≥ 1000 | ≤ 50 | 50 to 250
4 | O=C(CN1CC[C@]2(CCN(c3ccc4[nH]nc(-c5ccnc(C(F)(F)F)c5)c4c3)C2=O)C1)N1CC=C(c2ccc(-c3ncc(F)cn3)cc2)CC1 [Example 28, (S)-7-(2-(4-(4-(5-Fluoropyrimidin-2-yl)phenyl)-3,6-dihydropyridin-1(2H)-yl)-2-oxoethyl)-2-(3-(2-(trifluoromethyl)pyridin-4-yl)-1H-indazol-5-yl)-2,7-diazaspiro[4.4]nonan-1-one] | ≤ 500 | ≤ 50 | ≤ 50
5 | Cn1cnc(-c2ccc(C3=CCN(C(=O)CN4CC[C@]5(CCN(c6ccc7[nH]nc(-c8cnccc8C(F)(F)F)c7c6)C5=O)C4)CC3)cc2)n1 [Example 34, (S)-7-(2-(4-(4-(1-Methyl-1H-1,2,4-triazol-3-yl)phenyl)-3,6-dihydropyridin-1(2H)-yl)-2-oxoethyl)-2-(3-(4-(trifluoromethyl)pyridin-3-yl)-1H-indazol-5-yl)-2,7-diazaspiro[4.4]nonan-1-one] | ≥ 1000 | ≥ 250 | –
6 | CC(C)Oc1ccc(-c2n[nH]c3ccc(N4CC[C@]5(CCN(CC(=O)N6CC=C(c7ccc(-c8cn(C)cn8)cc7)CC6)C5)C4=O)cc23)cn1 [Example 26, (S)-2-(3-(6-Isopropoxypyridin-3-yl)-1H-indazol-5-yl)-7-(2-(4-(4-(1-methyl-1H-imidazol-4-yl)phenyl)-3,6-dihydropyridin-1(2H)-yl)-2-oxoethyl)-2,7-diazaspiro[4.4]nonan-1-one] | ≤ 500 | ≤ 50 | –
7 | CC(C)Oc1ccc(-c2n[nH]c3ccc(N4CC[C@]5(CCN(CC(=O)N6CCN(c7ccc(-c8ncn(C)n8)cc7)CC6)C5)C4=O)cc23)cn1 [Example 32, (S)-2-(3-(6-Isopropoxypyridin-3-yl)-1H-indazol-5-yl)-7-(2-(4-(4-(1-methyl-1H-1,2,4-triazol-3-yl)phenyl)piperazin-1-yl)-2-oxoethyl)-2,7-diazaspiro[4.4]nonan-1-one] | ≤ 500 | ≤ 50 | –
8 | CC(C)Oc1ccc(-c2n[nH]c3ccc(N4CC[C@]5(CCN(CC(=O)N6CCC(c7ccc(-c8ncn(C)n8)cc7)CC6)C5)C4=O)cc23)cn1 [Example 16, (S)-2-(3-(6-Isopropoxypyridin-3-yl)-1H-indazol-5-yl)-7-(2-(4-(4-(1-methyl-1H-1,2,4-triazol-3-yl)phenyl)piperidin-1-yl)-2-oxoethyl)-2,7-diazaspiro[4.4]nonan-1-one] | – | ≤ 50 | ≤ 50
9 | CC(C)Oc1ccc(-c2n[nH]c3ccc(N4CCC5(CCN(CC(=O)N6CC=C(c7ccc(-c8ncn(C)n8)cc7)CC6)C5)C4)cc23)cn1 (stereo not shown) [Example 4, 2-(7-(3-(6-Isopropoxypyridin-3-yl)-1H-indazol-5-yl)-2,7-diazaspiro[4.4]nonan-2-yl)-1-(4-(4-(1-methyl-1H-1,2,4-triazol-3-yl)phenyl)-3,6-dihydropyridin-1(2H)-yl)ethan-1-one] | – | ≥ 250 | ≥ 250
10 | Cn1cnc(-c2ccc(C3=CCN(C(=O)CN4CC[C@]5(CCN(c6ccc7[nH]nc(-c8ccnc(C(C)(F)F)c8)c7c6)C5=O)C4)CC3)cc2)n1 [Example 39, (S)-2-(3-(2-(1,1-difluoroethyl)pyridin-4-yl)-1H-indazol-5-yl)-7-(2-(4-(4-(1-methyl-1H-1,2,4-triazol-3-yl)phenyl)-3,6-dihydropyridin-1(2H)-yl)-2-oxoethyl)-2,7-diazaspiro[4.4]nonan-1-one] | ≤ 500 | ≤ 50 | –
11 | Cn1cnc(-c2ccc(C3=CCN(C(=O)CN4CC[C@]5(CCN(c6ccc7[nH]nc(N8CCOCC8)c7c6)C5=O)C4)CC3)cc2)n1 [Example 33, (S)-7-(2-(4-(4-(1-Methyl-1H-1,2,4-triazol-3-yl)phenyl)-3,6-dihydropyridin-1 (2H)-yl)-2-oxoethyl)-2-(3-morpholino-1H-indazol-5-yl)-2,7-diazaspiro[4.4]nonan-1-one] | ≤ 500 | ≤ 50 | –
12 | CC(C)Oc1ccc(-c2n[nH]c3ccc(N4CCC5(CN(CC(=O)N6CC=C(c7ccc(-c8ncn(C)n8)cc7)CC6)C5)C4=O)cc23)cn1 [Example 13, 6-(3-(6-Isopropoxypyridin-3-yl)-1H-indazol-5-yl)-2-(2-(4-(4-(1-methyl-1H-1,2,4-triazol-3-yl)phenyl)-3,6-dihydropyridin-1(2H)-yl)-2-oxoethyl)-2,6-diazaspiro[3.4]octan-5-one] | – | 50 to 250 | 50 to 250
13 | CC(C)Oc1ccc(-c2n[nH]c3ccc(N4CCC5(CCN(Cc6ccccc6)C5)C4=O)cc23)cn1 (stereo not shown) [Example 21, 7-Benzyl-2-(3-(6-isopropoxypyridin-3-yl)-1H-indazol-5-yl)-2,7-diazaspiro[4.4]nonan-1-one] | – | ≥ 250 | ≥ 250
14 | Cn1cnc(-c2ccc(C3=CCN(C(=O)CN4CC[C@]5(CCN(c6ccc7[nH]nc(-c8ccnc(C(F)F)c8)c7c6)C5=O)C4)CC3)cc2)n1 [Example 40, (S)-2-(3-(2-(Difluoromethyl)pyridin-4-yl)-1H-indazol-5-yl)-7-(2-(4-(4-(1-methyl-1H-1,2,4-triazol-3-yl)phenyl)-3,6-dihydropyridin-1(2H)-yl)-2-oxoethyl)-2,7-diazaspiro[4.4]nonan-1-one] | ≤ 500 | ≤ 50 | –
15 | Cn1cc(-c2ccc(C3=CCN(C(=O)CN4CC[C@]5(CCN(c6ccc7[nH]nc(-c8ccnc(C(F)(F)F)c8)c7c6)C5=O)C4)CC3)cc2)nn1 [Example 41, (S)-7-(2-(4-(4-(1-methyl-1H-1,2,3-triazol-4-yl)phenyl)-3,6-dihydropyridin-1 (2H)-yl)-2-oxoethyl)-2-(3-(2-(trifluoromethyl)pyridin-4-yl)-1H-indazol-5-yl)-2,7-diazaspiro[4.4]nonan-1-one] | ≤ 500 | ≤ 50 | –
16 | CC(C)Oc1ccc(-c2n[nH]c3ccc(N4CCC5(CCN(CC(=O)N6CC=C(c7ccc(-c8ncn(C)n8)cc7)CC6)C5)C4=O)cc23)cn1 (stereo not shown) [Example 1, 2-(3-(6-Isopropoxypyridin-3-yl)-1H-indazol-5-yl)-7-(2-(4-(4-(1-methyl-1H-1,2,4-triazol-3-yl)phenyl)-3,6-dihydropyridin-1(2H)-yl)-2-oxoethyl)-2,7-diazaspiro[4.4]nonan-1-one] | – | ≤ 50 | ≤ 50
17 | Cc1cc(-c2n[nH]c3ccc(N4CC[C@@]5(CCN(CC(=O)N6CC=C(c7ccc(-c8ncn(C)n8)cc7)CC6)C5)C4=O)cc23)ccn1 [Example 9, (R)-7-(2-(4-(4-(1-Methyl-1H-1,2,4-triazol-3-yl)phenyl)-3,6-dihydropyridin-1(2H)-yl)-2-oxoethyl)-2-(3-(2-methylpyridin-4-yl)-1H-indazol-5-yl)-2,7-diazaspiro[4.4]nonan-1-one] | – | ≤ 50 | 50 to 250
18 | CCNc1nnc(-c2ccc(C3=CCN(C(=O)CN4CC[C@]5(CCN(c6ccc7[nH]nc(-c8ccc(OC(C)C)nc8)c7c6)C5=O)C4)CC3)cc2)s1 [Example 19, (S)-7-(2-(4-(4-(5-(Ethylamino)-1,3,4-thiadiazol-2-yl)phenyl)-3,6-dihydropyridin-1(2H)-yl)-2-oxoethyl)-2-(3-(6-isopropoxypyridin-3-yl)-1H-indazol-5-yl)-2,7-diazaspiro[4.4]nonan-1-one] | – | ≤ 50 | ≤ 50
19 | Cc1nnc(-c2ccc(C3=CCN(C(=O)CN4CC[C@]5(CCN(c6ccc7[nH]nc(-c8ccnc(C(F)(F)F)c8)c7c6)C5=O)C4)CC3)cc2)o1 [Example 42, (S)-7-(2-(4-(4-(5-Methyl-1,3,4-oxadiazol-2-yl)phenyl)-3,6-dihydropyridin-1 (2H)-yl)-2-oxoethyl)-2-(3-(2-(trifluoromethyl)pyridin-4-yl)-1H-indazol-5-yl)-2,7-diazaspiro[4.4]nonan-1-one] | ≤ 500 | ≤ 50 | –
